According to a melting point compilation (Tetko et al.; mined from patent text by program, amines drawn as free bases though some values may be those of a salt):

| SMILES | melting point [°C] |
| --- | --- |
| CC(C)N1CCCN=C1SC1=C(O)CC(c2ccccc2)OC1=O (stereo not drawn) | 103 to 105 |
| CC(C)(C)c1ccc(OCCCCCCCCCCC(Cl)(Cl)C(=O)O)cc1 | 56 to 57 |
| CCOC(=O)C(NC(=O)c1ccccc1Cl)(c1nc(OC)cc(OC)n1)C(C)C (stereo not drawn) | 94 to 95 |
| CNc1nc(-c2cccc(Oc3ccccc3)c2)c2cc(OC)c(OC)cc2n1 | 157 to 159 |
| COc1cc2c(cc1NCc1ccccc1)ncc1c(N)nc(-c3cccnc3)cc12 | 251 to 258 |
| CC(C)(CN1CCN(C(=O)c2ccc(OC(=O)Cc3ccccc3Nc3c(Cl)cccc3Cl)cc2)CC1)SN=O | 61 to 62 |
| Cn1c(=O)c2c(ncn2CCN2CCC(c3c[nH]c4ccccc34)CC2)n(C)c1=O | 201 |
| O=C1CC(Nc2ccc([N+](=O)[O-])cc2)=NN1c1c(Cl)cc(Cl)cc1Cl | 295 to 298 |
| Cc1nc2ccccc2n1Cc1ccc(-n2c(C)nc3cnccc32)cc1 | 184 to 185 |
| O=c1[nH]c2ccccc2n(Cc2nnn[nH]2)c1=O | 320 |
| Cc1c(NC(=O)CC(CSC(=O)Cc2ccccc2)c2ccccc2)cccc1C(=O)O (stereo not drawn) | 135 to 137 |
| COCCC1(C(=O)N[C@@H](Cc2ccc(N3C(=O)c4ccc(C#N)cc4C3=O)cc2)C(=O)O)CCCC1 | 143 to 146 |
| O=C(O)c1cc(-c2nccs2)[nH]c1C(CC1CCOCC1)c1ccc(S(=O)(=O)C2CC2)cc1 (stereo not drawn) | 153 to 155 |
| S=C(NN=Cc1cccc(-c2ccccc2Cl)n1)NN1CCCC1 | 187 to 188 |
| CCOC(=O)c1c(C(F)(F)F)nc(C(F)(F)Cl)c(C(=O)OC)c1OCC | 37.5 to 39.5 |
| COc1cc2cc(CO)c(CO)c(-c3ccnc(-n4nc(O)c5ccccc5c4=O)c3)c2cc1OC | > 250 |
| CCCCNC(=S)C(C)Oc1ccc2oc3cc(Cl)ccc3c2c1 (stereo not drawn) | 101 to 104 |
| c1ccc(Cc2nnc(Nc3cccc(-n4ccnc4)c3)c3ccccc23)cc1 | 214 to 217 |
| COC[C@H]1CN(c2ccc(CCCC(=O)C3CCCCC3)cc2)C(=O)O1 | 86 |
| COc1cccc(-c2cc(C(=O)NCCCCCCCCc3ccccc3)cc(-c3cccc(OC)c3OCC(=O)O)c2)c1 | 67.3 to 68.7 |
| Cc1oc2c(C)c(C)c(NC(=O)c3ccc(F)cc3)c(C)c2c1-c1ccc(C(C)C)cc1 | 242 to 245 |
| CCC(C)(C)c1ccc(OCC(=O)Nc2ccc(Nc3cccc(O)c3)cc2)c(C(C)(C)CC)c1 | 150 to 152 |
| Cc1cccc(Cl)c1CC#N | 49 to 51 |
| COC(=O)CCc1c(CCO)ccc2c1CCC(NS(=O)(=O)c1ccc(Cl)cc1)C2 (stereo not drawn) | 132 |
| COC(=O)CCC(=O)c1cc2c(s1)CCc1ccccc1C2=O | 97 to 98 |

| SMILES | melting point [°C] |
| --- | --- |
| CCN(C(=S)Oc1ccc(C(C)C)cc1)c1cccc(OC)n1 | 53 to 54 |
| CC(C)(C)CCCOC1CCC2C3C(=O)C=C4CC(O[Si](C)(C)C(C)(C)C)CCC4(C)C3CCC12C (stereo not drawn) | 155 to 156 |
| CC1C=CC(NC(=O)OC(C)(C)C)C([N+](=O)[O-])C1c1cc([N+](=O)[O-])ccc1Cl (stereo not drawn) | 195 to 203 |
| N#Cc1cccc(Oc2ncccc2O)c1 | 130 to 133 |
| CCOC(=O)C(CC)Oc1ccc(-c2nc(-c3ccc(OC(CC)C(=O)OCC)cc3O)nc(-c3ccc(OC(CC)C(=O)OCC)cc3O)n2)c(O)c1 (stereo not drawn) | 101 to 105 |
| CCOC(=O)c1cc(NCc2c(C)cccc2C)c2nc(C)n(C)c2c1 | 190 |
| CC1NC(=O)NN=C1c1ccccc1O (stereo not drawn) | 257 to 261 |
| Clc1ccc(-c2c(Cl)nc(Cl)nc2-c2ccccc2)cc1 | 123 to 125 |
| O=C1NC(=O)C(Cc2ccc(O)cc2)S1 (stereo not drawn) | 151 to 152 |
| COCC1(F)CCN(c2ccc(N3C[C@H](CNC(C)=O)OC3=O)cc2F)CC1 | 169 to 171 |
| FC(F)(F)c1cccc(-c2[nH]c(C3CCNCC3)cc2-c2ccncc2)c1 | 106 to 112 |
| COc1ccc2c(-c3ccccc3)csc2c1 | 58 to 59 |
| COc1ccc2c(C3=CCNCC3)c[nH]c2c1 | 193 to 194 |
| CC(C)(C)c1ccc(NC(=O)c2cccc3cc(Oc4cc(CO)ncn4)ccc23)cc1 | 202 to 203 |
| C=Cc1cn(-c2c(Cl)cc(C(F)(F)F)cc2Cl)nc1C | 68.1 to 68.7 |
| CC1(C)CC(=O)c2ccc(C#Cc3cccnc3)nc2C1 | 108 to 109 |
| CC(=O)Oc1ccc(C(=O)Oc2ccc(C(=O)O)cc2)cc1C12CC3CC(CC(C3)C1)C2 | 264 to 265 |
| O=C(C=Cc1ccncc1)C=Cc1ccncc1 | 145 to 146 |
| CN=C(O)c1c(Cl)c(Cl)c(Sc2ccc(C)cc2)c(Cl)c1C(=O)O | 209 to 216 |
| CCOC(=O)c1cn(C)nc1Cl | 65 to 66 |
| CCn1nc(-c2ccc(F)cc2)c(-c2ccncc2)c1C(=O)N(C)Cc1ccccc1 | 148 to 149 |
| COc1ccc(-c2cnn(-c3cccc(C(=O)O)c3)c2)cc1 | 238 to 239 |
| O=C(O)CN1C(=O)[C@@H](N[C@@H](CCC2CCCCC2)C(=O)O)COc2ccccc21 | 202 to 205 |
| OC1(c2cccc(C(F)(F)F)c2)CCN(CCc2ccc3ncccc3c2)CC1 | 140 to 142 |
| CN1CCC2(CC1)c1ccccc1Sc1c(O)cccc12 | 180 to 182 |

| SMILES | melting point [°C] |
| --- | --- |
| CN1CC(OCC=C(Cl)Cl)(C(F)(F)F)c2cc(Cl)ccc2NC1=O (stereo not drawn) | 149 to 150 |
| CC1(C)C=Cc2cc(S(=O)(=O)C[N+](=O)[O-])ccc2O1 | 81 |
| CCS(=O)(=O)Nc1ccc(F)cc1Br | 79 to 81 |
| Cc1ccc(-c2ccc(Cl)cc2)cc1C1C(=O)COC(C)(C)C1=O (stereo not drawn) | 186 to 188 |
| CCCOc1ccccc1-c1nc2cc3ncn(Cc4ccccc4)c3cc2c(=O)[nH]1 | 218 to 219 |
| NS(=O)(=O)c1cc(C(=O)O)cc(NCc2ccccc2)c1S(=O)c1ccccc1 (stereo not drawn) | 234 |
| CC(CO)Oc1cc(Oc2ccc(S(C)(=O)=O)cc2)cc2cc(C3=NCC(CCO)S3)[nH]c12 (stereo not drawn) | 165 to 169 |
| COc1ccc(CC(=O)N2CCN(C(=S)SC)CC2)c(OC)c1OC | 119 to 120 |
| CC(=O)c1cc(CO)c(OCCCCC#N)cc1OCCCCC#N | 98 to 99 |
| Clc1ccc(-c2ccccc2Cl)nn1 | 145 to 147 |
| Cc1cscc1NC(=S)Nc1cccc(Cl)c1N | 298 to 305 |
| CC1(C)CCCC=C1c1ccc(C(=O)O)cc1 | 181 |
| CCOc1ccccc1-c1oc2c(C(=O)OCCO)cccc2c(=O)c1C | 143 to 144 |
| CC(=O)N(CCOc1cccc2ccccc12)c1ccc(C(=O)O)cc1 | 182 to 183 |
| CC1(C)CCC(C)(C)c2cc(O)ccc21 | 142 |
| Cc1cc2c(cc1C)C(C(F)(F)F)(C(F)(F)C(F)(F)F)c1cc(C)c(C)cc1O2 | 139 to 140 |
| COC(=O)C1CCCN1S(N)(=O)=O (stereo not drawn) | 166 to 168 |
| O=c1c2c(CCc3cccc([N+](=O)[O-])c3)n[nH]c2c2cccnc2n1-c1ccccc1 | 245 to 247 |
| Cc1nn(-c2nnc(S)n2N)c2c1CCCC2 | 201 to 202 |
| O=C(O)CSC(CCCCNS(=O)(=O)c1ccc(Cl)cc1)CCCc1cccnc1 (stereo not drawn) | 78 to 80 |
| COC(=O)c1cccc(Oc2cccc(-c3nnc(N(Cc4ccc(C(F)(F)P(=O)(O)O)c(Cl)c4)c4ccc(Cl)c(Cl)c4)s3)c2)c1 | 73 to 76 |
| CCCCc1ccc(-c2ccc3c(c2)CC[C@H]2N(C)C(=O)CC[C@]32C)cc1 | 102 to 108 |
| COc1ccc(CC2N(C)CCC(O)(c3ccccc3)C2(C)C)cc1 (stereo not drawn) | 122 to 124 |
| Cc1ccc(-c2cn(C)cc(-c3ccccc3C)c2=O)cc1 | 151 to 154 |
| COCCNC(=O)C1=C(C(=O)Nc2cc(OC3CCCC3)c(Cl)cc2F)CCCC1 | 151 |

| SMILES | melting point [°C] |
| --- | --- |
| O=Cc1ccc(NC(=O)c2cc(F)cc(N3CCOCC3)c2)c2ccccc12 | 204 to 205 |
| COP(=O)(CCC(C)(C)c1cc(O)c(C(C)(C)C)cc1O)OC | 193 to 195 |
| CCCc1nc2c(N)nc3ccccc3c2n1CC1(O)CCSCC1 | 243 to 244 |
| CC(O)=C1C(=O)CC(c2ccccc2C)CC1=O (stereo not drawn) | 78 to 81 |
| CC12CCC(=O)C=C1CCC1C2CCC2(C)C(OC(=O)CCl)CCC12 (stereo not drawn) | 125 to 126 |
| COc1cccc2c1-c1ccc3c(c1C(O)O2)C(C)=CC(C)(C)N3 (stereo not drawn) | 184 to 185 |
| CCCCc1cc2cc(C(=O)NOCc3ccccc3)ccn2c1C(=O)c1ccc(OCCCN(CCCC)CCCC)cc1 | 118 to 119 |
| O=C1COCC(c2ccccc2)N1C(=O)Oc1ccc([N+](=O)[O-])cc1 (stereo not drawn) | 105 to 109 |
| CC(C)(C)c1cc([PH](=O)c2cc(C(C)(C)C)cc(C(C)(C)C)c2)cc(C(C)(C)C)c1 | 185 |
| Cc1cc(S(=O)(=O)Nc2ccc(Cl)cc2)c2c(C)ccc(C(C)C)cc1-2 | 134 to 135 |
| O=C(O)c1ccc2c(c1)C(=O)CCC2 | 210 to 215 |
| O=C(NC(=O)C(c1ccccc1)c1ccccc1)OCC(F)(F)F | 125 to 127 |
| Cc1cc(Br)cc(C=O)c1F | 48 to 50 |
| CCCCOc1cc(/C=C/C(=O)NS(=O)(=O)CCC(C)C)n(Cc2ccc(Cl)cc2Cl)n1 | 119 to 120 |
| CCOC(=O)c1ccc2c(c1)c(C)c(CBr)n2C(C)=O | 125 to 130 |
| CC(C)CC1(C(CCSc2cccs2)C(=O)NO)CCN(CCc2ccccc2)C1=O (stereo not drawn) | 109 to 110 |
| CC(=O)C(O)C1OC(n2cc(Br)c(=O)[nH]c2=O)CC1N=[N+]=[N-] (stereo not drawn) | 112 to 114 |
| CC1(C)CCC(C)(C)c2cc(C#Cc3ccc(C(N)=O)cc3)ccc21 | 220 to 223 |
| COc1ccc(C(O)CN2CCN(C(c3ccccc3)c3ccccc3)CC2)c(OC)c1OC (stereo not drawn) | 128 |
| CCCCOc1cc(C(N)=O)nn1Cc1ccc(Cl)cc1 | 137 to 138 |
| O=C1c2c(Cl)cccc2-n2cnc(C#Cc3cccc(Cl)c3)c2[C@@H]2CCCN12 | 207 to 209 |
| COc1ccc2c(c1)Sc1ccc(Cl)cc1C(O)C2 (stereo not drawn) | 100 to 102 |
| CN(C)CC1CN(Cc2ccccc2)c2ccccc2N1C=O (stereo not drawn) | 82 to 84 |
